Marks after values point to notes of the source that are not given here.
Assays:
[1] = Particle size (protein aggregation) by dynamic light scattering; assay type: physicochemical; settings: DLS, 298 K; 10 μM Tf in binding buffer pH 7.4
Method: Protein samples (0.10 mM) were diluted 10-fold with binding buffer before the measurements. The measured parameters were the averages of 12–15 scans (scan time, 3 s). […] Analysis of Tf crystal structures that are available in the public domain from the Protein Data Bank (PDB) was performed with PyMOL software (version 2.1.1, Schrodinger LLC 2021, New York, NY, USA).

HepG2 cells [2] = experiment: Cellular Fe content of HepG2 cells (ICP-MS); assay type: cell-based, human; settings: HepG2, 24 h; 60 μM Ru, added HSA or Tf 30 μM; serum-free DMEM with ~15 μM BSA
Method: (§1) Human hepatoma (HepG2) cells were originally received from the American Type Culture Collection (ATCC, Cat. No. HB-8065) and cultured as described previously. This cell line was used for Tf-dependent metal uptake studies because of the high expression levels of human TfR1 [43]. For treatments, the cells were grown to confluence in 24-well plates, using Advanced DMEM (Dulbecco’s modified Eagle’s minimal essential medium, Invitrogen Cat. No. 12491-015), supplemented with L-glutamine (2.0 mM), antibiotic-antimycotic mixture (100 mg mL^−1 penicillin, 100 mg mL^−1 steptomycin and 0.25 mg mL^−1 amphotericin B) and fetal calf serum (heat-inactivated, 2% v/v). Confluent cell layers were washed with serum-free treatment medium (DMEM, Invitrogen Cat. No. 19938-025), supplemented with glutamine, antibiotic-antimycotic mixture and 1.0 mg mL^−1 AlbuMax (Gibco Cat. No. 11020-021). […] After washing, the wells were filled with the treatment medium containing metal additions (detailed in B1–B9 of Table 1). The treatment media were sterilized by filtration through 0.2 µm membrane filters, and pre-equilibrated for 24 h at 310 K and 5% CO2 prior to the addition to cells, except for sample B1 that was used immediately after preparation. All the treatments were performed in triplicate, using random well positions to avoid experimental bias.
(§2) After 24 h incubation with the treatment media (B1–B9 in Table 1), the medium from each well was collected for the determination of Ru–protein binding and BLI analyses, and the wells were washed twice with PBS (0.50 mL/well). […]
(§3) The values of metal uptake were normalized using protein content in cell lysates. For protein determination, Bradford reagent (Sigma Cat. No B6916; 98 µL) was mixed with a small aliquot (2.0 µL) of each cell lysate, and the absorbance at 600 nm was measured using a Victor V3 plate reader. […] The test and calibration samples were analyzed in triplicate. […]

[3] = system: protein in cell culture medium; experiment: Ru–protein binding in cell culture medium (gel filtration, GFAAS); assay type: in vitro ADME; settings: medium after 24 h cell treatment; gel filtration >6 kDa; 60 μM Ru, added HSA or Tf 30 μM, ~15 μM BSA
Method: An aliquot (50 µL) of cell culture medium from each well was passed through a separate Bio-Rad P6 centrifugal gel filtration column that was pre-saturated with PBS, according to manufacturer’s instructions. The eluants (50 ± 5 µL volume) contained protein-bound Ru fractions (>6 kDa molecular mass). The protein recovery, measured by Bradford assays, exceeded 95%. Another 50 µL sample of each medium was taken into separate tubes. Both the original and gel-filtered media samples were digested with 0.20 mL of 65% (v/v) HNO3 for 24 h. The digests were diluted with 0.75 mL of 0.10 M HCl, and the Ru content in the samples was determined by GFAAS. The percentage of protein binding was determined from the ratio of Ru content in the gel-filtered and original media samples [30, 31].

[4] = system: T1, recombinant human transferrin receptor 1 (TfR1); experiment: BLI of Tf–TfR1 binding in dilute cell culture media after uptake experiments; settings: 1.0 µM human Tf, 295 K; serum-free DMEM with 1.0 mg mL−1 BSA collected after HepG2 uptake experiments, diluted 30-fold; 1:1 binding model
T1 construct: extracellular domain (Cyst89-Phe760), (His)6-tagged at the N-terminus; purchased Sino Biological, Beijing, China (TfR1)
Method: (§4) The effects of Ru complexes on the Tf cycle were determined by BLI using previously developed protocols. The instrument used was a single-channel BLItz analyser (ForteBio, Menlo Park, CA, USA) with a tube holder (250 µL solution volume) and Ni(II)–nta coated optical probes held at 295 ± 1 K. Measurements used the Advanced Kinetics mode. […] Solutions of metal–Tf adducts (typical final Tf concentrations 150 nM or 1.0 µM) were prepared in the binding buffer (Section 2.1). The pH 7.4 binding buffer was used for Tf binding and dissociation from the probe, and the pH 5.6 buffer (Section 2.1) was used to mimic the endosomal step of the Tf cycle. Metal–Tf solutions (A1–A9 in Table 1) were diluted 100–400-fold, cell culture media were diluted 30-fold, and human serum samples were diluted 200-fold with the binding buffer immediately before the BLI measurements. All BLI data were background corrected by using data from buffer only runs with the same TfR1-loaded optical probe. Consistent BLI results were obtained in at least two independent measurements, using different probes and different batches of Tf solutions. Calculations of the Tf–TfR1 binding constants were performed using the 1:1 binding model (BLItz software, Version 1.1, Forte-Bio 2013), which can be used as a reasonable approximation of the physiological 2:2 Tf–TfR1 binding mechanism at low Tf concentrations.
(a) BLI response curves for 1.0 µM of human Tf at 295 K in dilute cell culture media after Ru uptake experiments by HepG2 cells (Section 3.2 in the main text). Media (serum-free DMEM, containing 1.0 mg mL−1 BSA as a background protein, as well as KP1019 and/or Tf, as shown in the figure legend), were collected after the end of uptake experiments, then were diluted 30-fold with buffer (20 mM HEPES + 25 mM NaHCO3 + 140 mM NaCl, pH = 7.4) and applied to TfR1-loaded BLI probe. Designations of the steps in Tf cycle (A–D) correspond to those in Figure 1d-f, main text. Calculated KD values (1:1 binding model, BLItz software) were as […]

[5] = system: T2, recombinant human transferrin receptor 1 (TfR1); experiment: BLI of Tf–TfR1 binding in dilute human serum pre-treated with metal complexes; settings: serum incubated with 100 μM Ru complex or 60 μM Fe(III) as citrate
T2 construct: extracellular domain (Cyst89-Phe760), (His)6-tagged at the N-terminus; purchased Sino Biological, Beijing, China (TfR1); Sigma (human serum, Cat. No. H4522, as source of Tf) 11020-H07H
Method: as §4, with “concentrations. […]” for “concentrations.”
(b) BLI response curves for dilute human serum samples in the presence or absence of metal complexes. Intact commercial human serum (Sigma H4522) was incubated with Fe(III)-citrate (60 µM) or with Ru complexes (100 µM) for 4 h at 310 K, then diluted 200-fold (to [Tf] ~ 150 nM) with the binding buffer (20 mM HEPES, 25 mM NaHCO3, 140 mM NaCl, pH = 7.4), and analyzed with the TfR1-loaded BLI probe. Designations of the steps in Tf cycle (A–D) correspond to those in Figure 1d-f, main text. Calculated KD values (1:1 binding model, BLItz software) were as follows: 8.0 nM (serum + Fe(III) citrate); or 28 ± 2 nM (serum in the presence or absence of Ru complexes). Typical anticancer Ru complexes, NAMI-A, KP1019 and RAPTA-C, were synthesized and characterized previously in the Lay group.
(1 picture or pasted object on this page, not shown here)

HepG2 cells [6] = experiment: Cellular Ru uptake by HepG2 cells (ICP-MS); assay type: cell-based, human; settings: HepG2, 24 h; 60 μM Ru, added HSA or Tf 30 μM; serum-free DMEM with ~15 μM BSA; media pre-equilibrated 24 h except B1
Method: as §1, §2, §3

HepG2 cells [7] = experiment: Toxicity to HepG2 cells judged from cell morphology during treatment; assay type: cell-based, human; settings: HepG2, 24 h incubation, 60 μM Ru
Method: as §1, with “All the treatments were performed in triplicate, using random well positions to avoid experimental bias.” left out
Cellular Fe levels were also measured to control the Tf-mediated Fe uptake. […]

Molecule	Mean Particle Size [1] [nm]	Fe Content (cellular metal content) (HepG2 cells [2])	% Ru–Protein (proportion of protein-bound Ru in cell culture medium) [3]	Effect on Tf–TfR1 binding in whole human serum [5]	further results
Ru2Tf: apoTf + 2.0 eq. [Ru^III(nta)2]^3−; Ru(III) bound to Fe(III) sites of transferrin	7 ± 1	1.9 ± 0.7 nmol per mg protein	74 ± 3 ^g molar %		
Fe2Tf: fully Fe(III)-saturated human transferrin	7 ± 2				Kd [4]: 22 nM
Fe(III) citrate				significantly increased the binding affinity	
RuFeTf: apoTf + 1.0 eq. [Fe^III(nta)2]^3−, then 1.0 eq. [Ru^III(nta)2]^3−; mixed Ru(III)–Fe(III)–Tf adduct	6.5 ± 1				
[Cl-].[Cl-].[Cl-].[Cl-].[Ru+3].c1ccc2[nH+][nH]cc2c1.c1ccc2[nH]ncc2c1.c1ccc2[nH]ncc2c1 [KP1019 fresh]		11.2 ± 6.5 ^f nmol per mg protein	46 ± 4 molar %		Ru Uptake (cellular metal content) (HepG2 cells [6]): 6.6 ± 2.8 ^e nmol per mg protein; Toxicity judged from cell morphology (HepG2 cells [7]): significant cell detachment
Cc1ccc(C(C)C)cc1.[Cl][Ru]([Cl])[PH]12CN3CN(CN(C3)C1)C2 [RAPTA-C, [Ru^II(η^6-p-cymene)Cl2(pta)]]				did not have any effect	
apoTf: human apo transferrin	7 ± 1				Kd [4]: 32 nM
O=C([O-])CN(CC(=O)[O-])CC(=O)[O-].O=C([O-])CN(CC(=O)[O-])CC(=O)[O-].[Ru+3] [[Ru(nta)2]^3−, [Ru^III(nta)2]^3−]		1.4 ± 0.4 nmol per mg protein	2 ± 1 ^g molar %		Ru Uptake (cellular metal content) (HepG2 cells [6]): 0.09 ± 0.03 nmol per mg protein
monoFeTf: apoTf + 1.0 eq. [Fe^III(nta)2]^3−; mixture of FeCTf and FeNTf forms	7 ± 1				
CS(C)=O.[Cl-].[Cl-].[Cl-].[Cl-].[Ru+3].c1c[nH+]c[nH]1.c1c[nH]cn1 [NAMI-A, (ImH)[Ru^IIICl4(Im)(S-dmso)]]				did not have any effect	

Reference: PMC9496346, “Controversial Role of Transferrin in the Transport of Ruthenium Anticancer Drugs” (Biomolecules, 2022)
